Laboratory results as given in the supplement of paper PMC10307832.

Columns and labels:
Assay in all cases: relative viability (nuclei count vs DMSO), 5 days (fraction); higher = more cells survive
NCI-H1650 = tested on: NCI-H1650
Outline: (§1)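 For relative viability, nuclei counts in treated wells were divided by those in vehicle wells. Lung cancer cell lines had been pin-tool dosed in 1536-well plates the day after seeding and cultured for 5 days, then fixed and stained in one step (final 0.05% Triton X-100, 1% formaldehyde, 1 ug/ml Hoechst) and imaged at 4×. Doses were one drug alone or a fixed anchor-drug dose plus five library-drug doses (not always all listed) in √10 steps, and values are duplicate-plate medians.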

NCI-H441 = tested on: NCI-H441
Outline: as §1

PC-14 = tested on: PC-14
Outline: as §1

HARA = tested on: HARA
Outline: as §1

HOP-62 = tested on: HOP-62
Outline: as §1

HCC-78 = tested on: HCC-78
Outline: as §1

NCI-H661 = tested on: NCI-H661
Outline: as §1

NCI-H1437 = tested on: NCI-H1437
Outline: as §1

LXF-289 = tested on: LXF-289
Outline: as §1

NCI-H596 = tested on: NCI-H596
Outline: as §1

LCLC-97TM1 = tested on: LCLC-97TM1
Outline: as §1

NCI-H2087 = tested on: NCI-H2087
Outline: as §1

NCI-H1666 = tested on: NCI-H1666
Outline: as §1

NCI-H1944 = tested on: NCI-H1944
Outline: as §1

H3255 = tested on: H3255
Outline: as §1

NCI-H2085 = tested on: NCI-H2085
Outline: as §1

NCI-H2126 = tested on: NCI-H2126
Outline: as §1

ChaGo-K-1 = tested on: ChaGo-K-1
Outline: as §1

COR-L23 = tested on: COR-L23
Outline: as §1

NCI-H3122 = tested on: NCI-H3122
Outline: as §1

EPLC-272H = tested on: EPLC-272H
Outline: as §1

`CN1CCN(CCOc2cc(OC3CCOCC3)c3c(Nc4c(Cl)ccc5c4OCO5)ncnc3c2)CC1` [Saracatinib] + C[C@@H](Oc1cc(-c2cnn(C3CCNCC3)c2)cnc1N)c1c(Cl)ccc(F)c1Cl [Crizotinib] (partner 1 µM) was tested, and the relative viability (NCI-H1650; first compound 0.02 µM) was 1.03, the relative viability (NCI-H1650; first compound 0.2 µM) was 0.637 and the relative viability (NCI-H1650; first compound 0.6325 µM) was 0.582. The relative viability (NCI-H1650; first compound 2 µM) was 0.413, the relative viability (NCI-H441; first compound 0.02 µM) was 0.95 and the relative viability (NCI-H441; first compound 0.2 µM) was 0.601. For the same compound, the relative viability (NCI-H441; first compound 0.6325 µM) was 0.798, the relative viability (NCI-H441; first compound 2 µM) was 0.646 and the relative viability (PC-14; first compound 0.02 µM) was 0.993. The relative viability (PC-14; first compound 0.2 µM) was 0.555, the relative viability (PC-14; first compound 0.6325 µM) was 0.424 and the relative viability (PC-14; first compound 2 µM) was 0.167. The relative viability (HARA; first compound 0.02 µM) was 1.02, the relative viability (HARA; first compound 0.6325 µM) was 0.829 and the relative viability (HARA; first compound 2 µM) was 0.64. It also gave a relative viability (HOP-62; first compound 0.02 µM) of 0.772, a relative viability (HOP-62; first compound 0.2 µM) of 0.928 and a relative viability (HOP-62; first compound 0.6325 µM) of 0.841. The relative viability (HOP-62; first compound 2 µM) was 1.02, the relative viability (HCC-78; first compound 0.02 µM) was 0.355 and the relative viability (HCC-78; first compound 0.2 µM) was 0.315. For the same compound, the relative viability (HCC-78; first compound 0.6325 µM) was 0.317, the relative viability (HCC-78; first compound 2 µM) was 0.207 and the relative viability (NCI-H661; first compound 0.02 µM) was 1.08. For the same compound, the relative viability (NCI-H661; first compound 0.6325 µM) was 1.03, the relative viability (NCI-H661; first compound 2 µM) was 0.864 and the relative viability (NCI-H1437; first compound 0.02 µM) was 0.912. It also gave a relative viability (NCI-H1437; first compound 0.2 µM) of 0.866, a relative viability (NCI-H1437; first compound 0.6325 µM) of 0.865 and a relative viability (NCI-H1437; first compound 2 µM) of 0.943. For the same compound, the relative viability (LXF-289; first compound 0.02 µM) was 0.845, the relative viability (LXF-289; first compound 0.2 µM) was 0.775 and the relative viability (LXF-289; first compound 0.6325 µM) was 0.847. It also gave a relative viability (LXF-289; first compound 2 µM) of 0.892, a relative viability (NCI-H596; first compound 0.02 µM) of 0.727 and a relative viability (NCI-H596; first compound 0.2 µM) of 0.775. It also gave a relative viability (NCI-H596; first compound 0.6325 µM) of 0.981, a relative viability (NCI-H596; first compound 2 µM) of 0.626 and a relative viability (LCLC-97TM1; first compound 0.02 µM) of 0.416. The relative viability (LCLC-97TM1; first compound 0.2 µM) was 0.268, the relative viability (LCLC-97TM1; first compound 0.6325 µM) was 0.457 and the relative viability (LCLC-97TM1; first compound 2 µM) was 0.316. The relative viability (NCI-H2087; first compound 0.02 µM) was 0.993, the relative viability (NCI-H2087; first compound 0.2 µM) was 0.697 and the relative viability (NCI-H2087; first compound 0.6325 µM) was 1.07. It also gave a relative viability (NCI-H2087; first compound 2 µM) of 1.02, a relative viability (NCI-H1666; first compound 0.02 µM) of 1.04 and a relative viability (NCI-H1666; first compound 0.2 µM) of 0.965. It also gave a relative viability (NCI-H1666; first compound 0.6325 µM) of 1.18, a relative viability (NCI-H1666; first compound 2 µM) of 0.926 and a relative viability (NCI-H1944; first compound 0.02 µM) of 1.11. For the same compound, the relative viability (NCI-H1944; first compound 0.6325 µM) was 1.09, the relative viability (NCI-H1944; first compound 2 µM) was 0.67 and the relative viability (H3255; first compound 0.02 µM) was 0.865. The relative viability (H3255; first compound 0.2 µM) was 0.952, the relative viability (H3255; first compound 0.6325 µM) was 0.664 and the relative viability (H3255; first compound 2 µM) was 0.269. It also gave a relative viability (NCI-H2085; first compound 0.02 µM) of 0.763, a relative viability (NCI-H2085; first compound 0.2 µM) of 0.761 and a relative viability (NCI-H2085; first compound 0.6325 µM) of 0.766. It also gave a relative viability (NCI-H2085; first compound 2 µM) of 0.755, a relative viability (NCI-H2126; first compound 0.02 µM) of 0.991 and a relative viability (NCI-H2126; first compound 0.2 µM) of 0.84. It also gave a relative viability (NCI-H2126; first compound 0.6325 µM) of 1.02, a relative viability (NCI-H2126; first compound 2 µM) of 0.894 and a relative viability (ChaGo-K-1; first compound 0.02 µM) of 1.08. For the same compound, the relative viability (ChaGo-K-1; first compound 0.2 µM) was 0.906, the relative viability (ChaGo-K-1; first compound 0.6325 µM) was 1.1 and the relative viability (ChaGo-K-1; first compound 2 µM) was 0.809. For the same compound, the relative viability (COR-L23; first compound 0.02 µM) was 0.65, the relative viability (COR-L23; first compound 0.2 µM) was 0.52 and the relative viability (COR-L23; first compound 0.6325 µM) was 0.658. The relative viability (COR-L23; first compound 2 µM) was 0.558, the relative viability (NCI-H3122; first compound 0.02 µM) was 0.28 and the relative viability (NCI-H3122; first compound 0.6325 µM) was 0.226. For the same compound, the relative viability (NCI-H3122; first compound 2 µM) was 0.187, the relative viability (EPLC-272H; first compound 0.02 µM) was 0.96 and the relative viability (EPLC-272H; first compound 0.2 µM) was 0.826. For the same compound, the relative viability (EPLC-272H; first compound 0.6325 µM) was 0.779 and the relative viability (EPLC-272H; first compound 2 µM) was 0.729.
